Experimental data from patent US5599953A, “C-glycoside analogues of N-(4-hydroxyphenyl)retinamide-O-glucuronide” (The Ohio State Research Foundation, priority 1995, dated 1997).
Where two headings read alike, the source gives them in different places.

Columns and labels:
mRARα = target: T1, mRARα (Mus musculus, UniProt P11416); assay: Drug competition with (3H)retinoic acid binding, mRARα; conditions: read-out: percent reduction of binding of the (3H)retinoic acid, mRARα; 1 μM drug; 5 nM [3H]RA
T1 construct: made in house; host or cells: Spodoptera frugiperda insect cells, baculovirus (whole cell extract)
T1 sequence (P11416 1-462): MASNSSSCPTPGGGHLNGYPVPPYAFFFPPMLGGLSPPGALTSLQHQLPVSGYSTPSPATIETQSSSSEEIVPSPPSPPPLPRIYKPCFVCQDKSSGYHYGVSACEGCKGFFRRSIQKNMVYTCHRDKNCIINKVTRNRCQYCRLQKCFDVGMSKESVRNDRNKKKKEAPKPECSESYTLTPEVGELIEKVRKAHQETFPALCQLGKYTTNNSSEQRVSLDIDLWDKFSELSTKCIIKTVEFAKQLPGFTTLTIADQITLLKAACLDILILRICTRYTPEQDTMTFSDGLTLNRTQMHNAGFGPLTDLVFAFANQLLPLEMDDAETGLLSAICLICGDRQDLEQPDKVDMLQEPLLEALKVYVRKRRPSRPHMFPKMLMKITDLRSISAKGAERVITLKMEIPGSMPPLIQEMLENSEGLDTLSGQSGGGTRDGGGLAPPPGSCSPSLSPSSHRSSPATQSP

β-glucuronidase [1] = target: T2, β-glucuronidase (Homo sapiens, UniProt P08236); assay: Stability toward β-glucuronidase mediated hydrolysis; type: in vitro ADME; conditions: β-glucuronidase
T2 sequence (P08236 23-651): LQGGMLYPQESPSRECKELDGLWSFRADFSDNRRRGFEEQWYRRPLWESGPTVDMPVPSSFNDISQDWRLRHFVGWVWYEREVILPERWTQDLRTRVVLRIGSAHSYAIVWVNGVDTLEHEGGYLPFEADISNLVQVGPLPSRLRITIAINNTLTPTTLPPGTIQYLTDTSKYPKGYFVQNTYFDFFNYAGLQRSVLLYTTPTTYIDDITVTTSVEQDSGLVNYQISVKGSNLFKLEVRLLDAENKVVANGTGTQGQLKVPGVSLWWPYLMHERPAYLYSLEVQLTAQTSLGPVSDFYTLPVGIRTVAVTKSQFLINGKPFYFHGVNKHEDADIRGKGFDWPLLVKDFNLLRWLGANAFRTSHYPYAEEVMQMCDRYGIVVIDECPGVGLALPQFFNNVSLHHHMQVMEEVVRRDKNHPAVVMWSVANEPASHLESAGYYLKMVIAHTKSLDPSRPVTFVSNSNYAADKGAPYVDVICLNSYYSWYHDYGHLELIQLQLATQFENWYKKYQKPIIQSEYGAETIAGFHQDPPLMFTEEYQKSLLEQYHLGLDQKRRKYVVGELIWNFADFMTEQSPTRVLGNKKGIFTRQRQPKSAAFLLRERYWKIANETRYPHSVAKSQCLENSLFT
Description: Similarly 1-(D-glucopyranosyluronosyl) retinamide and RAG were evaluated for their stability toward β-glucuronidase medicated hydrolysis under the same conditions as described above.

[2] = Acid stability, 0.1N methanolic HCl at 37° C. for 2 hours; type: physicochemical
Description: To determine the stability of the C-glucopyranosiduronate linkage towards acidic conditions, samples of 4-HPR-O-glucuronide, 4-(retinamido)phenyl-C-glucuronide and 4-(retinamido)benzyl-C-glucuronide were treated with 0.1N methanolic HCl at 37° C. for 2 hours.

mRARγ = target: T3, mRARγ (Mus musculus, UniProt P18911); assay: Drug competition with (3H)retinoic acid binding, mRARγ; conditions: read-out: percent reduction of binding of the (3H)retinoic acid, mRARγ; 1 μM drug; 5 nM [3H]RA
T3 construct: made in house; host or cells: Spodoptera frugiperda insect cells, baculovirus (whole cell extract)
T3 sequence (P18911 1-458): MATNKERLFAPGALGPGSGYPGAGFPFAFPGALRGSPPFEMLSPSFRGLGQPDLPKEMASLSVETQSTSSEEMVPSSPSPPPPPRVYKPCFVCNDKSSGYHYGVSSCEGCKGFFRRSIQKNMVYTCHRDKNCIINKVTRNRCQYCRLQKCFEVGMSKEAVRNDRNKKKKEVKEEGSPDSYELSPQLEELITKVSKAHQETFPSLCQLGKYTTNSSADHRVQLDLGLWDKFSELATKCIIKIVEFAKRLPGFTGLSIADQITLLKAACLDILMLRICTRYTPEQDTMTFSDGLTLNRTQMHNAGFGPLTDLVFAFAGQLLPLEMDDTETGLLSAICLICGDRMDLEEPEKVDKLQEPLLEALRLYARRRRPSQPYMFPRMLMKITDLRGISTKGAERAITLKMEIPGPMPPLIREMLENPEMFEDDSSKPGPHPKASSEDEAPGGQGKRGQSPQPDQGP

β-glucuronidase [3] = target: T2, β-glucuronidase; conditions: background statement; cited from earlier work
[4] = tested on: MCF-7 human mammary cell tumor culture; conditions: Bhatnagar et al.; cited from earlier work
[5] = background statement; cited from earlier work
mRARβ = target: T4, mRARβ (Mus musculus, UniProt P22605); assay: Drug competition with (3H)retinoic acid binding, mRARβ; conditions: read-out: percent reduction of binding of the (3H)retinoic acid, mRARβ; 1 μM drug; 5 nM [3H]RA
T4 construct: made in house; host or cells: Spodoptera frugiperda insect cells, baculovirus (whole cell extract)
T4 sequence (P22605 1-448 isoform P22605-3): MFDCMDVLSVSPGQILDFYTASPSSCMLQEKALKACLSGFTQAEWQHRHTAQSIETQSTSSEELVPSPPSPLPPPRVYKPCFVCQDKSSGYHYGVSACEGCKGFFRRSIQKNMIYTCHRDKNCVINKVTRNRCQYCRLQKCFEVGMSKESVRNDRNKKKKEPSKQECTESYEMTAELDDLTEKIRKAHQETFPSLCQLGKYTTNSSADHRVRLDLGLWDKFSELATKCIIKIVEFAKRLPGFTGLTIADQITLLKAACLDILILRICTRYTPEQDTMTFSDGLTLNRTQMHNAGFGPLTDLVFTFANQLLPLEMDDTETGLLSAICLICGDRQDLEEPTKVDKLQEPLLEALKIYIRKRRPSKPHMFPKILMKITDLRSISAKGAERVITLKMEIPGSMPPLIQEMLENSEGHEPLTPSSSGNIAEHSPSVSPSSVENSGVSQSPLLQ

inhibition at 1 µM (mRARα): 14%
inhibition at 1 µM (mRARγ): 7%
inhibition at 1 µM (mRARβ): 4%
Compound: CC1=C(/C=C/C(C)=C/C=C/C(C)=C/C(=O)Nc2ccc(O[C@@H]3O[C@H](C(=O)O)[C@@H](O)[C@H](O)[C@H]3O)cc2)C(C)(C)CCC1 [4-HPR-O-glucuronide, N-(4-hydroxyphenyl)retinamide-O-glucuronide]
hydrolysis by β-glucuronidase (β-glucuronidase [1]): is hydrolysed to glucuronic acid and the aglycone by β-glucuronidase
acid hydrolysis (stability) [2]: had undergone substantial hydrolysis of the ether linkage
hydrolysis by β-glucuronidase (β-glucuronidase [3]): also by the enzyme β-glucuronidase
in vivo half life (β-glucuronidase [3]): quite limited
antiproliferative activity and toxicity vs 4-HPR [4]: greater antiproliferative activity and less toxicity
stability in acidic media [5]: hydrolyzed in acidic media
